A short description of this data set: in vitro. To be noted: NMRI, mouse, brain homogenate, pH 7. The protocol: Brain tissue from Naval Medical Research Institute (NMRI) mice was homogenized in phosphate buffer (1 g: 2 mL) and stored in −80 °C freezer before use. For dialysis experiment, 150 µL of brain homogenate (fresh blood collected on EDTA-K2 and diluted 1:1 with phosphate buffer or plasma) was added to one compartment of a dialysis plate (assembled according to the manufacturer instructions with a dialysis membrane between the 2 compartments) against 150 µL of phosphate buffer pH 7. The test compound was added to the compartment with brain homogenate (or plasma) and the plate was incubated in an incubator with a 5% CO2 and rotating at 150 rpm for 5 h. At the end of the incubation time, aliquots of 90 µL of samples were removed from both the buffer and the brain homogenate compartments. The aliquots were added to 120 µL of acetonitrile containing the internal standard. The mixture was centrifuged at 4000 rpm for 10 min and the supernatant was collected for LC-MS/MS analysis. All equilibrium dialysis studies were performed in triplicate at each tested concentration.
Binding to brain tissues was assessed using 6 different concentrations of test items ranging from 0.3 to 100 µM. Warfarin was used as control.
Determination of fractions unbound was conducted according to the equations below:fu = Creceiver (CT0 − Creceiver)(1)
In brain homogenate (blood or plasma):(2) % Undiluted fu=100 ×1/D/1/fu−1+1/D (3) % Recovery=100 × Creceiver +Cdonor/CT0 where
Dilution factor (D) is determined as 3 in this assay.

A word on the fraction unbound: it is the share of the substance not bound to proteins or other matrix.

In turn, `CC(=O)CC(c1ccccc1)c1c(O)c2ccccc2oc1=O` (stereo not shown) [Warfarin] registered a fraction unbound at 5 h, 0.3 µM of 0.086 ± 0.002; a fraction unbound at 5 h, 1 µM of 0.112 ± 0.001; a fraction unbound at 5 h, 3 µM of 0.143 ± 0.005; a fraction unbound at 5 h, 10 µM of 0.143 ± 0.006. Further, the fraction unbound at 5 h, 30 µM turned out to be 0.168 ± 0.006 and the fraction unbound at 5 h, 100 µM worked out at 0.179 ± 0.009. Further, the “Ratio (30 µM/1 µM) Unbound Fractions in Brain” value (5 h) is 1.5.

Source of the values: PMC7690585, “Target-Mediated Brain Tissue Binding for Small Molecule Inhibitors of Heat Shock Protein 90” (Pharmaceutics, 2020).
